In brackets after ≈: the same amount, converted by molar mass. One block for each compound: values may come before it.
Tests used:
[1] = Solubility of batches of different crystallinity; format: physicochemical
Experimental: Two batches of Compound 1 were generated with different crystallinity. Batch 2 had higher crystallinity than Batch 3, which is regarded as having a higher degree of amorphous Compound 1-Batch 2 is therefore regarded as a more crystalline batch, whereas Batch 3 is regarded as a more amorphous batch. The methods used are discussed in this document.
A sample of the more amorphous Compound 1 batch 3 was added to PBS or water to a final concentration of 258 mg/mL and sonicated for 10 minutes, then shaken for 30 minutes.
A sample of the more crystalline Compound 1 batch 2 was added to HPLC-grade water (Fisher) to a final concentration of 30 mg/mL and sonicated for 10 minutes, then shaken for 30 minutes.
A sample of the more crystalline Compound 1 batch 2 was added to HPLC-grade water (Fisher) to a final concentration of 52 mg/mL and sonicated for 20 minutes, then shaken for 1 hour.
A sample of the more crystalline Compound 1 batch 2 was added to HPLC-grade water (Fisher) to a final concentration of […] and sonicated for 20 minutes, then shaken for 1.5 hours.

[2] = Caco-2 bioavailability in vitro assay (apparent permeability); format: in vitro ADME; conditions: human; Caco-2, apical to basolateral, 0.01 mM, pH 7.4, 1 h, 37° C.
Experimental: The cell penetrance and potential for oral bioavailability of Compound 1 was tested using a standard caco-2 bioavailability in vitro assay (in brief, confluent Caco-2 cells (L1, A. P., 1992; Grass, G. M; et al., 1992, Volpe, D. A., et al., 2001) in a 24 well Corning Costar Transwell format were provided by In Vitro Technologies Inc. (IVT Inc., Baltimore, Md., USA). The apical chamber contained 0.15 mL Hank's balanced buffer solution (HBBS) pH 7.4, 1% DMSO, 0.1 mM Lucifer Yellow. The basal chamber contained 0.6 mL HBBS pH 7.4, 1% DMSO. Controls and tests were incubated at 37° C. in a humidified incubator, shaken at 130 rpm for 1 h. Lucifer Yellow permeates via the paracellular (between the tight junctions) route only, a high Apparent Permeability (Papp) for Lucifer Yellow indicates cellular damage during assay and all such wells were rejected. Propranolol (good passive permeation with no known transporter effects) & acebutalol (poor passive permeation attenuated by active efflux by P-glycoprotein) were used as reference compounds. Compounds were tested in a uni- and bi-directional format by applying compound to the apical or basal chamber (at 0.01 mM). Compounds in the apical or basal chambers were analysed by HPLC-MS. Results were expressed as Apparent Permeability, Papp, (nm/s), in comparison to other succinate prodrugs, including a number from WO2015/155231.

[3] = Aqueous formulations of Compound 1 (water, PBS, saline), concentration by HPLC; format: physicochemical; conditions: for Calculated concentration by HPLC: 50% w/v in 100 mM PBS pH 7.4; for Calculated Conc.: tap water, target conc. 400 mg/ml; for 400 mg Compound in 0.7 ml Water, Measured Conc.: 400 mg in 0.7 ml
Experimental: Formulation Protocol • 1. Weigh out the required amount of Compound 1 then add the required amount of excipient (0.9% w/v saline, 100 mM PBS pH 7.4, water) to the solid Compound 1 to give the required mg/ml concentration of Compound 1. For example, for a 400 mg/ml formulation of Compound 1 in water, weigh out 400 mg of Compound 1 and add 0.7 ml of water. • 2. Sonicate the solution for 10 mins and then shake for 20 mins to ensure that Compound 1 is fully dissolved. • 3. The solution can be centrifuged (13000 rpm, 10 mins) to remove any particulates if required. • 4. The solution can be sterile filtered if required.
˜500 mg of compound was weighed into a vial, ˜500 μl 100 mM PBS pH 7.4 added and the vial was sonicated for 10 mins then shaken for 20 mins. A sample was then removed, diluted 1/2000 and the concentration calculated by HPLC analysis.
Compound 1 batch 3 was heated in an oven to 60° C. for 20 mins, at which point it became a translucent pale-yellow liquid. 100 mM PBS pH 7.4 (20% v/v) was added and the solution was mixed for 20 mins on a shaker. […] The solution was placed at 4° C. for 72 hours.
Method: • 1. Saline (0.9% w/v) was added to Compound 1 batch 11 in different amounts then sonicated for 10 mins—the samples remained slightly cloudy • 2. The samples were shaken for 30 mins at which point the solutions became translucent • 3. The solutions were diluted for HPLC analysis

[4] = Kinetic solubility (turbidity at 620 nm, dissolution rate constant); format: physicochemical; conditions: dissolution in PBS at 5° C., 460 mg/ml final concentration, 3 mins
Experimental: Solid Compound 1 Batches s3, s12-17 (˜80 mg) were added to wells of a flat clear bottom 96 well plate. PBS at 5° C. was added to give a 460 mg/ml final concentration of 01-354 for all batches. After addition of the PBS, the plate was agitated for 10 s then immediately analysed for turbidity at 620 nm in real time for 3 mins by an Epoch Microplate Spectrophotometer (BioTek). A rate constant for the dissolution was calculated from the exponential decay fit of the recorded data.

[5] = Stability in purified (HPLC grade) or non-purified (tap) water; format: physicochemical; conditions: 1 mg/ml, room temperature
Experimental: A side-by-side experiment of the stability of Compound 1 in ‘purified’ HPLC grade water (Fisher Scientific) and ‘non-purified’ tap water was set up. In brief, 1 mg/mL solutions of Compound 1 were generated in ‘purified’ HPLC grade water (Fisher Scientific) and ‘non-purified’ tap water. These were incubated at room temperature for up to 10 days. Concentration and purity of Compound 1 was assessed over time by HPLC in comparison to a standard (AUC of 8.21 RT peak at 230 nm for calculated concentration and AUC of Compound 1 peak vs impurities for purity analysis). Data presented is the average of two samples.

[6] = Solubility in aqueous formulations in comparison to other succinate prodrugs; format: physicochemical; conditions: pH 7.4, aqueous buffer, thermodynamic from solid; PBS pH7.4
Experimental: Solubility of Compound 1 in aqueous formulations in comparison to other succinate prodrugs was assessed by dissolving solid material in aqueous formulations and measuring the quantity in solution by HPLC (−MS). […] In many cases the max solubility of other prodrugs was lower than 100 uM. See Table 21 for example solubility data in PBS pH7.4 for other succinate prodrugs.

[7] = system: human peripheral blood cells; test: Metformin effect on mitochondrial function and lactate production of human blood cells; format: cell-based
Source text: As mentioned above, increased lactate plasma levels are often observed in patients treated with drugs that may have mitochondrial-related side effects.

concentration reached ([1]; HPLC-grade water, added to 30 mg/mL, sonicated 10 minutes, shaken 30 minutes): 17000 µg/mL | concentration reached ([1]; HPLC-grade water, added to 52 mg/mL, sonicated 20 minutes, shaken 1 hour): 52000 µg/mL | concentration reached ([1]; HPLC-grade water, added to 2000 mg/mL, sonicated 20 minutes, shaken 1.5 hours): 850000 µg/mL | solubility at 1.5 h ([1]; HPLC-grade water, water, thermodynamic from solid, more crystalline Compound 1, read-out: water solubility): ≥ 850 mg/mL
SMILES: COC(=O)CCC(=O)SCCNC(C)=O [Batch 2, Methyl 3-[(2-acetylaminoethylthio)carbonyl]propionate]

Papp A→B at 1 h, 0.01 mM [2]: 0.262 ×10⁻⁶ cm/s
SMILES: O=C1CNC(=O)[C@H](CSC(=O)CCC(=O)SC[C@@H]2NC(=O)CNC2=O)N1 [HI]

Papp A→B at 1 h, 0.01 mM [2]: 0.135 ×10⁻⁶ cm/s
SMILES: CC(=O)NCCSC(=O)CCC(=O)OC(C)C [J]

Papp A→B at 1 h, 0.01 mM [2]: 0.128 ×10⁻⁶ cm/s
SMILES: CCOC(=O)CCC(=O)SCCNC(C)=O [C]

Papp A→B at 1 h, 0.01 mM [2]: < 0.021 ×10⁻⁶ cm/s
SMILES: CC(=O)NCCSC(=O)CCC(=O)OCC(C)(C)C [E]

Calculated concentration by HPLC [3]: 531 mg/mL
SMILES: COC(=O)CCC(=O)SCCNC(C)=O [Batch 5, Methyl 3-[(2-acetylaminoethylthio)carbonyl]propionate]

Rate constants, k [4]: 0.014 s⁻¹ | solubility at 30 min ([1]; PBS or water, water, thermodynamic from solid, PBS or water, added to 258 mg/mL, sonicated 10 minutes, shaken 30 minutes, read-out: concentration reached): ≥ 258 mg/mL | Calculated concentration by HPLC [3]: 535 mg/mL | appearance of liquid formulation ([3]; batch 3 melted at 60° C., 100 mM PBS pH 7.4 (20% v/v) added, 72 hours at 4° C.): remained a translucent liquid | Calculated Conc. [3]: 381 mg/mL | 400 mg Compound in 0.7 ml Water, Measured Conc. [3]: 381 mg/mL | Calculated Conc. ([5]; HPLC grade water, day 0): 1.02 mg/mL | Purity ([5]; HPLC grade water, day 0): 99.0% | Calculated Conc. ([5]; HPLC grade water, day 3): 1.04 mg/mL | Purity ([5]; HPLC grade water, day 3): 98.8% | Calculated Conc. ([5]; HPLC grade water, day 5): 1.03 mg/mL | Purity ([5]; HPLC grade water, day 5): 99.0% | Calculated Conc. ([5]; HPLC grade water, day 6): 1.01 mg/mL | Purity ([5]; HPLC grade water, day 6): 99.0% | Calculated Conc. ([5]; tap water, day 0): 1.06 mg/mL | Purity ([5]; tap water, day 0): 98.5% | Calculated Conc. ([5]; tap water, day 3): 0.98 mg/mL | Purity ([5]; tap water, day 3): 95.7% | Calculated Conc. ([5]; tap water, day 5): 0.93 mg/mL | Purity ([5]; tap water, day 5): 94.4% | Calculated Conc. ([5]; tap water, day 6): 0.89 mg/mL | Purity ([5]; tap water, day 6): 93.3% | Calculated Conc. ([5]; tap water, day 10): 0.83 mg/mL | Purity ([5]; tap water, day 10): 93.0%
SMILES: COC(=O)CCC(=O)SCCNC(C)=O [Batch 3, Methyl 3-[(2-acetylaminoethylthio)carbonyl]propionate]

Rate constants, k [4]: 0.013 s⁻¹ | Calculated Conc. [3]: 395 mg/mL | 400 mg Compound in 0.7 ml Water, Measured Conc. [3]: 395 mg/mL
SMILES: COC(=O)CCC(=O)SCCNC(C)=O [Batch 13, Methyl 3-[(2-acetylaminoethylthio)carbonyl]propionate]

solubility [6]: 52 µM (≈ 13.6 µg/mL)
SMILES: CC(OC(=O)CCC(=O)O)OC(=O)CCC(=O)O [A, reference compound]

Rate constants, k [4]: 0.074 s⁻¹ | 400 mg Compound in 0.7 ml Water, Measured Conc. [3]: 414 mg/mL
SMILES: COC(=O)CCC(=O)SCCNC(C)=O [Batch 15, Methyl 3-[(2-acetylaminoethylthio)carbonyl]propionate]

Papp A→B at 1 h, 0.01 mM [2]: 0.016 ×10⁻⁶ cm/s
SMILES: CC(=O)NCC(C)SC(=O)CCC(=O)OCC(C)(C)C (stereo not drawn) [L]

Papp A→B at 1 h, 0.01 mM [2]: 0.145 ×10⁻⁶ cm/s
SMILES: COC(=O)CCC(=O)SC(C)CNC(C)=O (stereo not drawn) [F]

Rate constants, k [4]: 0.022 s⁻¹ | Calculated Conc. [3]: 378 mg/mL | 400 mg Compound in 0.7 ml Water, Measured Conc. [3]: 378 mg/mL
SMILES: COC(=O)CCC(=O)SCCNC(C)=O [Batch 12, Methyl 3-[(2-acetylaminoethylthio)carbonyl]propionate]

Papp A→B at 1 h, 0.01 mM [2]: 0.097 ×10⁻⁶ cm/s
SMILES: CCNC(=O)[C@H](CSC(=O)CCC(=O)SC[C@H](NC(=O)CC)C(=O)N(CC)CC)NC(=O)CC [M]

Rate constants, k [4]: 0.055 s⁻¹ | 400 mg Compound in 0.7 ml Water, Measured Conc. [3]: 435 mg/mL
SMILES: COC(=O)CCC(=O)SCCNC(C)=O [Batch 16, Methyl 3-[(2-acetylaminoethylthio)carbonyl]propionate]

Papp A→B at 1 h, 0.01 mM [2]: 0.087 ×10⁻⁶ cm/s
SMILES: CCOC(=O)CCC(=O)SC(C)CNC(C)=O (stereo not drawn) [G]

Papp A→B at 1 h, 0.01 mM [2]: 0.142 ×10⁻⁶ cm/s
SMILES: CC(=O)NCC(C)SC(=O)CCC(=O)OC(C)C (stereo not drawn) [D]

Papp A→B at 1 h, 0.01 mM [2]: 0.313 ×10⁻⁶ cm/s
SMILES: CCN(CC)C(=O)[C@H](CSC(=O)CCC(=O)OC(C)C)NC(C)=O [A]

Calculated concentration by HPLC [3]: 543 mg/mL
SMILES: COC(=O)CCC(=O)SCCNC(C)=O [Batch 6, Methyl 3-[(2-acetylaminoethylthio)carbonyl]propionate]

Rate constants, k [4]: 0.111 s⁻¹
SMILES: COC(=O)CCC(=O)SCCNC(C)=O [Batch 17, Methyl 3-[(2-acetylaminoethylthio)carbonyl]propionate]

Papp A→B at 1 h, 0.01 mM [2]: 0.168 ×10⁻⁶ cm/s
SMILES: CCOC(=O)CCC(=O)SC[C@H](NC(C)=O)C(=O)N(CC)CC [K]

Papp A→B at 1 h, 0.01 mM [2]: 0.192 ×10⁻⁶ cm/s
SMILES: CCN(CC)C(=O)[C@H](CSC(=O)CCC(=O)OC)NC(C)=O [B]

Calculated concentration by HPLC [3]: 526 mg/mL
SMILES: COC(=O)CCC(=O)SCCNC(C)=O [Batch 4, Methyl 3-[(2-acetylaminoethylthio)carbonyl]propionate]

Rate constants, k [4]: 0.011 s⁻¹ | Calculated Conc. [3]: 366 mg/mL | 400 mg Compound in 0.7 ml Water, Measured Conc. [3]: 366 mg/mL
SMILES: COC(=O)CCC(=O)SCCNC(C)=O [Batch 14, Methyl 3-[(2-acetylaminoethylthio)carbonyl]propionate]

SMILES: CN(C)C(=N)N=C(N)N [Metformin]
mitochondrial function at Complex I ([7]; human peripheral blood cells, concentrations relevant for metformin intoxication): inhibits mitochondrial function of human peripheral blood cells at Complex I in a time- and dose-dependent fashion | lactate production ([7]; intact platelets, over time): significant increase in lactate production
